Measurements reported in ChEMBL document CHEMBL1949644, “Synthesis and SAR optimization of quinazolin-4(3H)-ones as poly(ADP-ribose)polymerase-1 inhibitors” (Eur J Med Chem, 2012).
pIC50: −log10 of the molar value.

Assays:
[1] = target: T1, Poly [ADP-ribose] polymerase 1 (Homo sapiens, UniProt P09874); assay: Inhibition of PARP1 at 25 uM using TACS-Sapphire substrate for 30 mins by colorimetry
[2] = target: T1, Poly [ADP-ribose] polymerase 1; assay: Inhibition of PARP1 using TACS-Sapphire substrate for 30 mins by colorimetry
MEF [3] = assay: Antiproliferative activity against MEF cells harboring Brca1 deletion mutant at exon 11 assessed as cell viability after 72 hrs by MTT assay; format: functional, cell-based; conditions: Mus musculus
MEF [4] = assay: Antiproliferative activity against wild type MEF cells assessed as cell viability after 72 hrs by MTT assay; format: cell-based; conditions: Mus musculus
[5] = target: T1, Poly [ADP-ribose] polymerase 1; assay: Ratio of quinazoline-4(3H)-one IC50 to compound IC50 for PARP1
MEF [6] = assay: Ratio of IC50 for wild type MEF cells to MEF cells harboring Brca1 deletion mutant at exon 11; format: functional, Mus musculus

T1 sequence (P09874 whole entry): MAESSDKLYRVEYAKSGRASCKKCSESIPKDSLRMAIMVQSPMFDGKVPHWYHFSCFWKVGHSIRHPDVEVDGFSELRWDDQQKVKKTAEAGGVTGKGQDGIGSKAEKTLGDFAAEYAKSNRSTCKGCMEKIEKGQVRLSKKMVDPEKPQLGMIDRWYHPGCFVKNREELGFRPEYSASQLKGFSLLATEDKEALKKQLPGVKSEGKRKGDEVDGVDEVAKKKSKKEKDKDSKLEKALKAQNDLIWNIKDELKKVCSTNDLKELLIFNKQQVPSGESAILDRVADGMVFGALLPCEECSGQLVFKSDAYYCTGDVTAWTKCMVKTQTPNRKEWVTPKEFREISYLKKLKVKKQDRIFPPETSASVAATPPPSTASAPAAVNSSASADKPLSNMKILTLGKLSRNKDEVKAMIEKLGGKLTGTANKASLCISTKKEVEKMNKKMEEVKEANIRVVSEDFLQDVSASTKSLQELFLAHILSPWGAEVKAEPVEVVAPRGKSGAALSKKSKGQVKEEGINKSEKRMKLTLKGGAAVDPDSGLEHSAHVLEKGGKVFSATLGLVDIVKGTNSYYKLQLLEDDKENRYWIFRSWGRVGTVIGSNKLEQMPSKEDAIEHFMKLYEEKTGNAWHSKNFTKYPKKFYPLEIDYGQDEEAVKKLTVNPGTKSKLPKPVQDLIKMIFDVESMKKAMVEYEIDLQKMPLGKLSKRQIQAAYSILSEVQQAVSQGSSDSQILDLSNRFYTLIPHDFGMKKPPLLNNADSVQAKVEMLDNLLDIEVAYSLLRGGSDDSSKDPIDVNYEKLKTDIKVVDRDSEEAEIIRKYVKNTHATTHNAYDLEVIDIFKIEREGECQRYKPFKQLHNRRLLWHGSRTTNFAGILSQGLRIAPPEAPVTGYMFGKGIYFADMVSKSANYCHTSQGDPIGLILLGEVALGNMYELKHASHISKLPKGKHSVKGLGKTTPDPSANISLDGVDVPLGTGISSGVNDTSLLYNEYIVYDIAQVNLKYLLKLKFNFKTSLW

Compound | inhibition [1] | pIC50 [2] | further results
Cc1ccc2c(=O)[nH]cnc2c1 | 40% | – | –
COc1cc2nc[nH]c(=O)c2cc1OC | < 40% | – | –
O=c1[nH]cnc2c(Cl)cccc12 | – | 5.25 | –
O=c1[nH]cnc2cccc(Cl)c12 | – | 5.50 | –
O=c1[nH]cnc2cc(F)ccc12 | < 40% | – | –
CN(C)CC(=O)Nc1ccc2[nH]c(=O)c3ccccc3c2c1 [PJ34] | – | – | pIC50 (MEF [3]): 4.88; pIC50 (MEF [4]): 4.70
O=c1[nH]cnc2ccc(F)cc12 | – | 5.05 | –
Cc1cccc2nc[nH]c(=O)c12 | 40% | – | –
Cc1cccc2c(=O)[nH]cnc12 | – | 5.88 | Ratio IC50 [5]: 4
O=[N+]([O-])c1cccc2c(O)ncnc12 | < 40% | – | –
Oc1ncnc2cc(Cl)ccc12 | < 40% | – | –
Cc1nc2c(N)cccc2c(=O)[nH]1 | – | 6.40 | Ratio IC50 (MEF [6]): >10; pIC50 (MEF [3]): 4.31; pIC50 (MEF [4]): < 3.30
O=c1[nH]cnc2ccc([N+](=O)[O-])cc12 | – | 4.60 | –
Cc1ccc2nc[nH]c(=O)c2c1 | 40% | 4.60 | –
O=c1[nH]cnc2c(F)cccc12 | – | 4.73 | –
O=c1[nH]cnc2c(C(F)(F)F)cccc12 | 40% | – | –
Cc1nc2cccc(F)c2c(=O)[nH]1 | – | 5.71 | –
O=[N+]([O-])c1ccc2ncnc(O)c2c1 | 40% | – | –
O=c1[nH]cnc2cccc(F)c12 | – | 5.15 | –
Cc1nc2cccc(Cl)c2c(=O)[nH]1 | – | 5.93 | –
Nc1ccc2nc[nH]c(=O)c2c1 | 40% | – | –
Cc1cc(C)c2nc(C)[nH]c(=O)c2c1 | – | 4.88 | –

The next lines start with results.

inhibition [1] | pIC50 [2] | Compound | further results
< 40% | – | O=c1[nH]cnc2cc(F)c(F)cc12 | –
– | 6.12 | Nc1cccc2c(=O)[nH]cnc12 | pIC50 (MEF [3]): < 3.22; pIC50 (MEF [4]): < 3.22
40% | – | O=c1[nH]cnc2ccc(I)cc12 | –
– | 5.12 | O=c1[nH]cnc2cc(C(F)(F)F)ccc12 | –
40% | – | O=c1[nH]cnc2ccc(O)cc12 | –
– | 5.27 | Cc1nc2cccc(C)c2c(=O)[nH]1 | –
– | 6.31 | Cc1nc(O)c2cccc(C)c2n1 | Ratio IC50 (MEF [6]): 12; pIC50 (MEF [3]): 4.82; pIC50 (MEF [4]): 3.75
– | 4.96 | O=c1[nH]cnc2ccc(Cl)cc12 | –
– | 5.58 | Cc1nc2c(Cl)cccc2c(=O)[nH]1 | –
< 40% | – | Nc1ccc2c(=O)[nH]cnc2c1 | –
< 40% | – | O=c1[nH]cnc2cc([N+](=O)[O-])ccc12 | –
– | 5.86 | Cc1cc(C)c2nc[nH]c(=O)c2c1 | Ratio IC50 [5]: 4
